Experimental data taken from patent US9458093B2, “Compositions for the treatment of hypertension and/or fibrosis” (Vectus Biosystems Limited, priority 2013, dated 2016).

How the values were obtained:
SHR on 2.2% salt diet [1] = test: Intravenous infusion study: systolic blood pressure by tail cuff plethysmography in SHR on 2.2% salt diet; format: in vivo, rat; details: intravenous 10 and 20 pmol/kg/min, 4 weeks, FIG. 6
Method: Fourteen week old SHR (on a 2.2% salt diet; Glen Forrest Stockfeeders) were randomly assigned to zero time control, VB0004 infusion (10 and 20 pmol/kg/min) or vehicle (20% DMSO in normal saline, Baxter Healthcare, Sydney NSW Australia) infusion (n=5 each group). […] Blood pressure was measured twice weekly by tail cuff plethysmography (PowerLab, ADInstruments, Castle Hill, NSW, Australia). After 4 weeks rats were again anaesthetised, their heart and kidneys harvested for quantitation of fibrosis.

[2] = system: bovine aortic endothelial cells; test: xCELLigence cellular impedance (cell index), bovine aortic endothelial cells; format: cell-based; details: 62.5, 125 and 250 μM, FIG. 5
Method: Briefly, 50 μl of cell culture medium (DMEM low glucose supplemented with 10% fetal bovine serum at 37° C.) was added to each well of an E-Plate 96 (Roche), and the background impedance in each well was measured. 50 μl of A-10 cell suspension (10,000 cells/well) was then added to the appropriate wells of the E-Plate 96. Cell index was monitored for each well of the E-Plate 96 in RTCA SP Station within the cell culture incubator. After overnight incubation for 16-20 hours at 5% CO2 and 95% humidity, 100 μl of VB0004 solution (VB0004 was prepared in DMSO and diluted with cell culture medium to a final DMSO concentration of 0.25%) was added to the appropriate wells of the E-Plate 96 and cell index values were measured immediately following compound treatment every 20 seconds for 3 hours. Cell index value is baseline-corrected by subtracting the cell index of vehicle-treated cells and normalized by dividing by the cell index at the time point immediately before compound addition. Baseline normalized cell index as a function of time is plotted using Roche RTCA software.
The xCELLigence SP system (Roche) was also used to measure changes in cellular impedance (cell index) following the treatment of bovine aortic endothelial cells (European Collection of Cell Cultures) with test compound. […]

SHR on 2.2% salt diet [3] = test: Oral study: fibrosis quantitation in heart (Masson's trichrome) of SHR on 2.2% salt diet; format: in vivo, rat
Description: (§1) Fourteen week old SHR (on a 2.2% salt diet; Glen Forrest Stockfeeders) were randomly assigned to zero time control, VB0004 treatment (10, 100, 500, 1,000 and 2,500 pmol/kg/min) in the drinking solution or control drinking solution (5% ethanol in deionised distilled water (n=5 each group). The rats assigned to zero time control group were anaesthetised and had their heart and kidneys harvested while rats assigned to control and VB0004 treatment were weighed twice weekly and had their drinking solution intake monitored to allow adjustment of the VB0004 concentration in the drinking solution to maintain a constant dose over the 4, 6 or 8 weeks study periods. Blood pressure was measured twice weekly by tail cuff plethysmography (PowerLab, ADInstruments, Castle Hill, NSW, Australia). After 4, 6 or 8 weeks rats were anaesthetised, and their heart and kidneys harvested for quantitation of fibrosis. To quantitate fibrosis, tissue slices ≦3 mm thick were fixed in 10% buffered formalin for 24 hours, processed and embedded in paraffin. […] A minimum of 20 random fields at magnification ×20 from transverse sections (5 at each of 2 levels) were digitized and the degree of fibrosis determined as a percent of field area of each digitized image using Image-Pro Plus V.5 (Media Cybernetics, Bethesda, Md., USA) then averaged to determine the level of fibrosis for tissue for each rat.

SHR on 2.2% salt diet [4] = test: Oral study: systolic blood pressure by tail cuff plethysmography in SHR on 2.2% salt diet; format: in vivo, rat
Description: Fourteen week old SHR (on a 2.2% salt diet; Glen Forrest Stockfeeders) were randomly assigned to zero time control, VB0004 treatment (10, 100, 500, 1,000 and 2,500 pmol/kg/min) in the drinking solution or control drinking solution (5% ethanol in deionised distilled water (n=5 each group). The rats assigned to zero time control group were anaesthetised and had their heart and kidneys harvested while rats assigned to control and VB0004 treatment were weighed twice weekly and had their drinking solution intake monitored to allow adjustment of the VB0004 concentration in the drinking solution to maintain a constant dose over the 4, 6 or 8 weeks study periods. Blood pressure was measured twice weekly by tail cuff plethysmography (PowerLab, ADInstruments, Castle Hill, NSW, Australia). After 4, 6 or 8 weeks rats were anaesthetised, and their heart and kidneys harvested for quantitation of fibrosis.

SHR on 2.2% salt diet [5] = test: Oral study: fibrosis quantitation in kidney (Masson's trichrome) of SHR on 2.2% salt diet; format: in vivo, rat
Description: as §1

[6] = system: A10 embryonic vascular smooth muscle cells; test: xCELLigence cellular impedance (cell index), A10 vascular smooth muscle cells; format: cell-based; details: 62.5, 125 and 250 μM, FIG. 3
Method: The xCELLigence SP system (Roche) was used to measure changes in cellular impedance (cell index) following the treatment of A10 embryonic vascular smooth muscle cells (ATCC, CRL-1476) with VB0004. This in vitro assay was correlated with blood pressure data obtained in the animal model described below in Example 3, so that it can be used for faster screening of larger number of compounds. […]
Briefly, 50 μl of cell culture medium (DMEM low glucose supplemented with 10% fetal bovine serum at 37° C.) was added to each well of an E-Plate 96 (Roche), and the background impedance in each well was measured. […] Cell index was monitored for each well of the E-Plate 96 in RTCA SP Station within the cell culture incubator. After overnight incubation for 16-20 hours at 5% CO2 and 95% humidity, 100 μl of VB0004 solution (VB0004 was prepared in DMSO and diluted with cell culture medium to a final DMSO concentration of 0.25%) was added to the appropriate wells of the E-Plate 96 and cell index values were measured immediately following compound treatment every 20 seconds for 3 hours. […]

## NC(=O)CCc1cc(-c2ccccc2)ccc1-c1cccc(O)c1 [VB0004, 2′-[3-Hydroxy-(1,1′:4′,1″-terphenyl)]propanamide]
SHR on 2.2% salt diet [1]
  decrease in SBP compared with vehicle control: 20 mmHg
[2]
  impedance response (cell index): negative impedance response
other
  melting point: 167.2 to 168.9 °C
SHR on 2.2% salt diet [3]; 18 week old SHR, 10 to 500 pmol/kg/min orally, 4 weeks, vs 14 and 18 week controls, FIG. 9
  fibrosis in the heart: decreased compared with fibrosis in 14 and 18 week controls
SHR on 2.2% salt diet [3]; SHR, 500 pmol/kg/min for four weeks, FIG. 11
  fibrous tissue in heart sections (micrographs, Masson's trichrome): virtually no fibrous tissue is present
SHR on 2.2% salt diet [4]; 2,500 pmol/kg/min orally, up to 8 weeks, FIG. 8
  mean systolic blood pressure over time: continued to decrease with time
SHR on 2.2% salt diet [4]; 10, 100 and 500 pmol/kg/min orally, 4 weeks, FIG. 4
  mean systolic blood pressure compared to controls: decreased blood pressure compared to controls
SHR on 2.2% salt diet [4]; 10 to 2,500 pmol/kg/min orally, 4 weeks, FIG. 7
  mean systolic blood pressure compared with controls, dose dependence: decreased blood pressure with increased dose compared with controls
SHR on 2.2% salt diet [5]; 18 week old SHR, 10 to 500 pmol/kg/min orally, 4 weeks, vs 14 and 18 week controls, FIG. 10
  fibrosis in the kidney: decreased compared with fibrosis in 14 and 18 week controls
SHR on 2.2% salt diet [5]; SHR, 500 pmol/kg/min for four weeks, FIG. 12
  fibrous tissue in kidney sections (micrographs, Masson's trichrome): virtually no fibrous tissue is present
[6]
  impedance response (cell index): negative impedance response
